According to patent publication US9783552B2, “Soluble guanylate cyclase activators” (MERCK SHARP & DOHME CORP., priority 2013, dated 2017):

Assays:
[1] = target: T1, sGC α1/β1 heterodimer (Homo sapiens, UniProt Q02108+Q02153); experiment: Cell-Based sGC Functional Assay (CASA Assay); conditions: CHO-K1/sGC cells; for EC50: intracellular cGMP by HTRF, 1 hr at 37° C., IP from 4P fit, presence or absence of 1 μM DETA-NO not given; for Emax: cGMP as percentage of maximum cGMP production of Compound A (=100% activation), read-out: % ACT (percent activation)
T1 construct: expressed in transfected cells
T1 sequence (Q02108 1-690): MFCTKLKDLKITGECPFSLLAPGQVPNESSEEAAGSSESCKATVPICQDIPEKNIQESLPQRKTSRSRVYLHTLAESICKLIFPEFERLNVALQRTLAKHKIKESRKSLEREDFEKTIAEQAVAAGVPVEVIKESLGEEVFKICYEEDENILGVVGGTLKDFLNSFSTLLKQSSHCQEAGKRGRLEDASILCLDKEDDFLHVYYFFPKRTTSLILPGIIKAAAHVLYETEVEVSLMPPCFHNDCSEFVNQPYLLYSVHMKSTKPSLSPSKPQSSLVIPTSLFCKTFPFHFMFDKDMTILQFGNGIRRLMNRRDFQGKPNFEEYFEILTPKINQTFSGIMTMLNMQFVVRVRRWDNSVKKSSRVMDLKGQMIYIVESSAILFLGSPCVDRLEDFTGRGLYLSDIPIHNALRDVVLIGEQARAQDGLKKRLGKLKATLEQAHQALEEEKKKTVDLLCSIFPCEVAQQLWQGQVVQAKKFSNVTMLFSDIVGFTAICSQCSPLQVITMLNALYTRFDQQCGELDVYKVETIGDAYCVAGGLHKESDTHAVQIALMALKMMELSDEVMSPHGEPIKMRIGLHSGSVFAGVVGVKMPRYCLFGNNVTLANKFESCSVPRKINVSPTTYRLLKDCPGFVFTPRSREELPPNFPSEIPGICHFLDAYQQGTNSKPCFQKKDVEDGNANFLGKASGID
T1 sequence (Q02153 1-619): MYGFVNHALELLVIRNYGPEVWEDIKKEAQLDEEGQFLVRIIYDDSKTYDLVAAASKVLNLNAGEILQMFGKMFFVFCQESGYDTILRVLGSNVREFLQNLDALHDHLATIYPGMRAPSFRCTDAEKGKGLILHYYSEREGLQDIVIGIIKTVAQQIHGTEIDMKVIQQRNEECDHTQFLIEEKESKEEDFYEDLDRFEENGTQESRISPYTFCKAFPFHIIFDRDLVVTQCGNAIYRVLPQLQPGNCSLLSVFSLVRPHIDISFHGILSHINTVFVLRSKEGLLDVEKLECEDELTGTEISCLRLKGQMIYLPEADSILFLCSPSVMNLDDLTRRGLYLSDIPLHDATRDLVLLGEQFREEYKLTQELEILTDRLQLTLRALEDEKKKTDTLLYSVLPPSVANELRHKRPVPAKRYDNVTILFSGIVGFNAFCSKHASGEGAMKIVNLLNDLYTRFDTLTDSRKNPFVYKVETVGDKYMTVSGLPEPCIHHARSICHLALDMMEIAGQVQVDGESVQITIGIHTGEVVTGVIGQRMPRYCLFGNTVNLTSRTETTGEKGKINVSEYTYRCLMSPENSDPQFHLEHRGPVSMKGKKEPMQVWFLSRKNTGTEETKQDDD
In short: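 CHO-K1 cells stably expressing human sGC α1/β1 were incubated with compound (2.5% DMSO) for 1 hr at 37 °C with 0.5 mM IBMX, with or without 1 μM DETA-NO. Intracellular cGMP was measured by HTRF and expressed as % of the maximal cGMP produced by a reference sGC heme-dependent activator. IP and maximum fold induction came from a 4-parameter fit.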

[2] = test system: Spontaneously hypertensive rats (SHR); experiment: Acute Efficacy in Spontaneously Hypertensive Rats (SHR); type: in vivo, rat; conditions: single oral gavage
Excerpt: Acute Efficacy in Spontaneously Hypertensive Rats (SHR)
Spontaneously hypertensive rats (SHR, male, Charles River) were implanted with DSI TA 11PA-C40 telemetry device (Data Sciences, Inc., St. Paul, Minn.) under isoflurane or ketamine/metomidine anesthesia. The telemetry unit catheter was inserted into the descending aorta via the femoral artery and the telemetry device was implanted subcutaneously in the left flank area. Animals were allowed to recover from surgery for 14 days before the start of any studies. Blood pressure, heart rate, and activity signals from conscious, freely moving rats were recorded continuously for 30 seconds every 10 min. On the day prior to administration of compound, a single oral dose of vehicle (10% transcutol/20% Cremophor/70% water) was administered to all animals to establish baseline control data. The blood pressure lowering efficacy of compound (PO) or vehicle was evaluated following a single oral gavage. Data were collected as hourly averages, and changes in blood pressure were calculated by subtracting control baseline data on an hourly basis. Animals were maintained on normal diet with a 12 h light-dark cycle.
Maximum peak decreases of systolic blood pressure (SBP) in SHR at a particular P.O. dose (mpk milligrams per kilogram) for the following Example compounds are provided. Category A=SBP in SHRs<25 mmHg; Category B=SBP in SHRs 25-40 mmHg; Category C=SBP in SHRs>40 mmHg.

## Cn1ncc2c(-c3nc(N)c4c(n3)NC(=O)C4(C)c3ccccc3)nc(CCC(F)(F)F)nc21 (single isomer, unassigned) [Example 4, 4-Amino-5-methyl-2-(1-methyl-6-(3,3,3-trifluoropropyl)-1H-pyrazolo[3,4-d]pyrimidin-4-yl)-5-phenyl-5H-pyrrolo[2,3-d]pyrimidin-6(7H)-one]
[1]
  EC50: 0.13 µM
  Emax: 108%
[2]; Dose 3 mpk P.O.
  Maximum peak decrease of systolic blood pressure (SBP) in SHR, Category: C (Category C=SBP in SHRs>40 mmHg)

## Cn1ccc2c(-c3nc(N)c4c(n3)NC(=O)C4(C)c3ccccc3)nc(CCC(F)(F)C(F)(F)F)nc21 (single isomer, unassigned) [Example 62, 4-Amino-5,7′-dimethyl-2′-(3,3,4,4,4-pentafluorobutyl)-5-phenyl-5H,7′H-[2,4′-bipyrrolo[2,3-d]pyrimidin]-6(7H)-one]
[1]
  EC50: 0.019 µM
  Emax: 92%
[2]; Dose 1 mpk P.O.
  Maximum peak decrease of systolic blood pressure (SBP) in SHR, Category: A (Category A=SBP in SHRs<25 mmHg)

## [2H]C([2H])([2H])n1nnc2c(-c3nc(N)c4c(n3)NC(=O)C4(C)c3ccc(Cl)cc3F)nc(CCC(F)(F)C(F)(F)F)nc21 (single isomer, unassigned) [Example 73, 4-Amino-5-(4-chloro-2-fluorophenyl)-5-methyl-2-(5-(3,3,4,4,4-pentafluorobutyl-3-trideuteriomethyl)-3H-[1,2,3]triazolo[4,5-d]pyrimidin-7-yl)-5H-pyrrolo[2,3-d]pyrimidin-6(7H)-one]
[1]
  EC50: 0.429 µM
  Emax: 97%
[2]; Dose 3 mpk P.O.
  Maximum peak decrease of systolic blood pressure (SBP) in SHR, Category: A (Category A=SBP in SHRs<25 mmHg)

## [2H]C([2H])([2H])n1nnc2c(-c3nc(N)c4c(n3)NC(=O)C4(C)c3ccc(F)cc3)nc(CCC(F)(F)C(F)(F)F)nc21 (single isomer, unassigned) [Example 67, 4-Amino-5-(4-fluorophenyl)-5-methyl-2-(5-(3,3,4,4,4-pentafluorobutyl-3-trideuteriomethyl)-3H-[1,2,3]triazolo[4,5-d]pyrimidin-7-yl)-5H-pyrrolo[2,3-d]pyrimidin-6(7H)-one]
[1]
  EC50: 1.07 µM
  Emax: 114%
[2]; Dose 1 mpk P.O.
  Maximum peak decrease of systolic blood pressure (SBP) in SHR, Category: A (Category A=SBP in SHRs<25 mmHg)

## [2H]C([2H])([2H])n1ncc2c(-c3nc(N)c4c(n3)NC(=O)C4(C)C)nc(CCC(F)(F)C(F)(F)F)nc21 [Example 12, 4-Amino-5,5-dimethyl-2-(6-(3,3,4,4,4-pentafluorobutyl)-1-trideuteriomethyl-1H-pyrazolo[3,4-d]pyrimidin-4-yl)-5H-pyrrolo[2,3-d]pyrimidin-6(7H)-one]
[1]
  EC50: 0.285 µM
  Emax: 75%
[2]; Dose 1 mpk P.O.
  Maximum peak decrease of systolic blood pressure (SBP) in SHR, Category: B (Category B=SBP in SHRs 25-40 mmHg)

## [2H]C([2H])([2H])n1ncc2c(-c3nc(N)c4c(n3)NC(=O)C4(C)c3ccc(F)cc3)nc(CCC(F)(F)C(F)(F)F)nc21 (single isomer, unassigned) [Example 2, 4-Amino-5-(4-fluorophenyl)-5-methyl-2-(6-(3,3,4,4,4-pentafluorobutyl)-1-trideuteriomethyl-1H-pyrazolo[3,4-d]pyrimidin-4-yl)-5H-pyrrolo[2,3-d]pyrimidin-6(7H)-one]
[1]
  EC50: 0.032 µM
  Emax: 97%
[2]; Dose 1 mpk P.O.
  Maximum peak decrease of systolic blood pressure (SBP) in SHR, Category: C (Category C=SBP in SHRs>40 mmHg)

## [2H]C([2H])([2H])n1nnc2c(-c3nc(N)c4c(n3)NC(=O)C4(c3ccc(F)cc3)C3CC3)nc(CCC(F)(F)C(F)(F)F)nc21 (single isomer, unassigned) [Example 69, 4-Amino-5-cyclopropyl-5-(4-fluorophenyl)-2-(5-(3,3,4,4,4-pentafluorobutyl-3-trideuteriomethyl)-3H-[1,2,3]triazolo[4,5-d]pyrimidin-7-yl)-5H-pyrrolo[2,3-d]pyrimidin-6(7H)-one]
[1]
  EC50: 1.14 µM
  Emax: 98%
[2]; Dose 3 mpk P.O.
  Maximum peak decrease of systolic blood pressure (SBP) in SHR, Category: B (Category B=SBP in SHRs 25-40 mmHg)

## Cn1ncc2c(-c3nc(N)c4c(n3)NC(=O)C4(C)c3ccccc3)nc(CCC(F)(F)C(F)(F)F)nc21 (single isomer, unassigned) [Example 1, 4-Amino-5-methyl-2-(1-methyl-6-(3,3,4,4,4-pentafluorobutyl)-1H-pyrazolo[3,4-d]pyrimidin-4-yl)-5-phenyl-5H-pyrrolo[2,3-d]pyrimidin-6(7H)-one]
[1]
  EC50: 0.04 µM
  Emax: 101%
[2]; Dose 1 mpk P.O.
  Maximum peak decrease of systolic blood pressure (SBP) in SHR, Category: C (Category C=SBP in SHRs>40 mmHg)

## Cn1ncc2c(-c3nc(N)c4c(n3)NC(=O)C4(C)C(=O)NC3CC3)nc(CCC(F)(F)C(F)(F)F)nc21 (single isomer, unassigned) [Example 31, 4-Amino-N-cyclopropyl-5-methyl-2-(1-methyl-6-(3,3,4,4,4-pentafluorobutyl)-1H-pyrazolo[3,4-d]pyrimidin-4-yl)-6-oxo-6,7-dihydro-5H-pyrrolo[2,3-d]pyrimidine-5-carboxamide]
[1]
  EC50: 0.19 µM
  Emax: 132%
[2]; Dose 0.3 mpk P.O.
  Maximum peak decrease of systolic blood pressure (SBP) in SHR, Category: B (Category B=SBP in SHRs 25-40 mmHg)

## [2H]C([2H])([2H])n1ncc2c(-c3nc(N)c4c(n3)NC(=O)C4(C(=O)NC3CC3)C3CC3)nc(CCC(F)(F)C(F)(F)F)nc21 (single isomer, unassigned) [Example 28, 4-Amino-N,5-dicyclopropyl-2-(6-(3,3,4,4,4-pentafluorobutyl)-1-trideuteriomethyl-1H-pyrazolo[3,4-d]pyrimidin-4-yl)-6-oxo-6,7-dihydro-5H-pyrrolo[2,3-d]pyrimidine-5-carboxamide]
[1]
  EC50: 0.053 µM
  Emax: 112%
[2]; Dose 1 mpk P.O.
  Maximum peak decrease of systolic blood pressure (SBP) in SHR, Category: C (Category C=SBP in SHRs>40 mmHg)

## [2H]C([2H])([2H])n1nnc2c(-c3nc(N)c4c(n3)NC(=O)C4(C)c3ccc(OC)cc3)nc(CCC(F)(F)C(F)(F)F)nc21 (single isomer, unassigned) [Example 71, 4-Amino-5-(4-methoxyphenyl)-5-methyl-2-(5-(3,3,4,4,4-pentafluorobutyl-3-trideuteriomethyl)-3H-[1,2,3]triazolo[4,5-d]pyrimidin-7-yl)-5H-pyrrolo[2,3-d]pyrimidin-6(7H)-one]
[1]
  EC50: 0.594 µM
  Emax: 67%
[2]; Dose 1 mpk P.O.
  Maximum peak decrease of systolic blood pressure (SBP) in SHR, Category: A (Category A=SBP in SHRs<25 mmHg)

## Cn1ccc2c(-c3nc(N)c4c(n3)NC(=O)C4(C)c3ccc(F)cc3)nc(CCC(F)(F)C(F)(F)F)nc21 (single isomer, unassigned) [Example 61, 4-Amino-5-(4-fluorophenyl)-5,7′-dimethyl-2′-(3,3,4,4,4-pentafluorobutyl)-5H,7′H-[2,4′-bipyrrolo[2,3-d]pyrimidin]-6(7H)-one]
[1]
  EC50: 0.061 µM
  Emax: 91%
[2]; Dose 1 mpk P.O.
  Maximum peak decrease of systolic blood pressure (SBP) in SHR, Category: A (Category A=SBP in SHRs<25 mmHg)
